Assays:
[1] = system: healthy, drug-free male volunteers; test: Pupillometry (pupillary miosis, dark-adapted pupil diameter); type: in vivo, human; conditions: adjusted for baseline, p>0.9
Protocol: (§1) Pulse oximetry and capnography data were collected continuously using a GE Carescape B650 monitoring system from 2 hours prior to dosing and until six hours after dosing, and thereafter at 12, 24, 48 and 72 hours post-dosing. Additional oximetry data were collected at 120, 168 and 216 hours. Pupillary miosis was assessed by pupillometry. Dark-adapted pupil diameter was measured in triplicate using a Neuroptics PLR-200 pupillometer under standardized light intensity (<5 lux) pre-dose, and at 2, 4, 6, 12, 24, 48, 72, 96, 120, 168 and 216 hours post-dosing.
(§2) Summary statistics (means, standard deviations, and coefficients of variation) were determined for each dose group for safety laboratory test data, ECG and pharmacokinetic parameters, and pharmacodynamic variables. Categorical variables were analysed using counts and percentages. Dose-proportionality of AUC and Cmax was assessed using linear regression. The effect of dose on pharmacodynamic parameter values over time was assessed using two-factor analysis of variance (ANOVA). Pairwise comparisons (with Tukey-Kramer adjustment) between each dose group to the placebo were conducted at each time point using the least squares estimates obtained from the ANOVA, using SAS Proc Mixed (SAS ver 6.0).

[2] = system: healthy, drug-free male volunteers; test: Cold pressor test (analgesic effect); type: in vivo, human; conditions: adjusted for baseline
Protocol: as §2
Analgesic effect was assessed based on duration of hand immersion in ice water and on visual analog scale (VAS) pain scores upon hand removal from the water bath.
(§3) Safety and tolerability of noribogaine were tested in the group of volunteers from Example 1. Cold pressor testing was conducted in 1° C. water according to the method of Mitchell et al. (J Pain 5:233-237, 2004) pre-dose, 6, 24, 48, 72 and 216 hours post-dosing. Safety evaluations included clinical monitoring, recording of adverse events (AEs), safety laboratory tests, vital signs, ECG telemetry from −2 h to 6 h after dosing, and 12-lead electrocardiograms (ECGs) up to 216 hours post-dosing.

[3] = system: healthy, drug-free male volunteers; test: Safety and tolerability of noribogaine in healthy humans (adverse events, vital signs, ECG); type: in vivo, human
Protocol: as §1, §3

[4] = system: opioid-dependent participants; test: Time to resumption of morphine (opioid substitution treatment, OST); type: in vivo, human
[5] = system: opioid-dependent participants; test: Opiate withdrawal scales (COWS, SOWS, OOWS); type: in vivo, human; conditions: first six hours following dosing
Protocol: Patients were evaluated based on the Clinical Opiate Withdrawal Scale (COWS), Subjective Opiate Withdrawal Scale (SOWS), and Objective Opiate Withdrawal Scale (OOWS) scoring systems over the period of time between administration of noribogaine (or placebo) until resumption of OST. These scales are outlined in Guidelines for the Psychosocially Assisted Pharmacological Treatment of Opioid Dependence, World Health Organization, Geneva (2009), Annex 10, which is incorporated herein by reference in its entirety. The scales measure the intensity of withdrawal symptoms, based on clinical, subjective, and objective indicia.

[6] = Pharmacokinetics in opioid-dependent patients (Phase IB study, serum noribogaine); conditions: 60, 120, 180 mg

For `CC[C@H]1CC2C[C@H]3c4[nH]c5ccc(O)cc5c4CCN(C2)C13` [noribogaine], the “pupil diameter, each dose group vs placebo by ANOVA” value [1] was “no statistically significant differences”, the “VAS pain scores, each dose group vs placebo by ANOVA” value ([2]; p=0.17) was “no statistically significant differences” and the “duration of hand immersion, each dose group vs placebo by ANOVA” value ([2]; p>0.9) was “no statistically significant differences”. The adverse events reported ([3]; 3 mg dose group) was “five adverse events were reported by two subjects”, the adverse events reported ([3]; 10 mg dose group) was “one adverse event was reported by single subjects” and the adverse events reported ([3]; 30 mg dose group) was “one adverse event was reported by single subjects”. The “changes in oximetry, capnography, respiratory rate” value ([3]; 3-60 mg) was “no changes in oximetry or capnography, or changes in respiratory rate”, the “changes in vital signs or safety laboratory tests” value ([3]; 3-60 mg) was “no changes in vital signs or safety laboratory tests of note” and the “Time to resumption of OST” value ([4]; 180 mg, longer than untreated patients (7 hours, not shown) or 60 mg) was greater than 7 h. For the same compound, the “average time to resumption of opioids” value ([4]; single 120 mg dose) was “greater than 20 hours”, the “withdrawal symptoms (COWS, OOWS, SOWS)” value ([5]; 120 mg) was “fewer withdrawal symptoms than the other patients” and the “withdrawal symptoms, noribogaine vs placebo” value ([5]; 60, 120, 180 mg) was “placebo generally experienced more withdrawal symptoms than patients who were administered noribogaine”. For the same compound, the “Maximum serum concentration of noribogaine (Cmax), dose dependence” value [6] was “increased in a dose-dependent manner”.

— patent US20150342959A1, “METHODS AND COMPOSITIONS FOR SUSTAINED N[…]” (DemeRx, Inc., priority 2014, published 2015)
